From patent publication US8324250B2 (Hoffmann-La Roche Inc., priority 2009, dated 2012)

Molecular target: T1, recombinant human NK3 receptor (Homo sapiens, UniProt P29371)
T1 construct: expressed in transfected cells; host or cells: HEK293 cells (transient expression), membranes
T1 sequence (P29371 1-465): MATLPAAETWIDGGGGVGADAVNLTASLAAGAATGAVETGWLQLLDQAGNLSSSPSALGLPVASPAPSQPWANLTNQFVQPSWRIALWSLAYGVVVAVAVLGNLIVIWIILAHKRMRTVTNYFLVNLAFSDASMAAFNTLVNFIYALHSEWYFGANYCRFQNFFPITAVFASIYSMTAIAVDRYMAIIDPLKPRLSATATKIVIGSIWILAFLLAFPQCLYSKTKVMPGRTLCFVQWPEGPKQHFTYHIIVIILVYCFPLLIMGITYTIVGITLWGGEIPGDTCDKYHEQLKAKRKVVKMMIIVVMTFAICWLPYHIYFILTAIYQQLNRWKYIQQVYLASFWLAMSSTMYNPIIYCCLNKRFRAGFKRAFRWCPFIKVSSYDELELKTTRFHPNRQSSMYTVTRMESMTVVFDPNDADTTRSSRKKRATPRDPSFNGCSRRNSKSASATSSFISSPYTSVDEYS
Assay: [3H]SR142801 competition binding assay
Details: membranes from HEK293 cells transiently expressing recombinant human NK3 receptor; [3H]SR142801 radioligand; 75 min at RT; Ki by Cheng-Prussoff; read-out: Data Ki (hNK-3 receptor affinity)
Method: [^3H]SR142801 Competition Binding Assay
hNK3 receptor binding experiment were performed using [^3H]SR142801 (Catalog No. TRK1035, specific activity: 74.0 Ci/mmol, Amersham, GE Healthcare UK limited, Buckinghamshire, UK) and membrane isolated from HEK293 cells transiently expressing recombinant human NK3 receptor. After thawing, the membrane homogenates were centrifuged at 48,000×g for 10 min at 4° C., the pellets were resuspended in the 50 mM Tris-HCl, 4 mM MnCl2, 1 μM phosphoramidon, 0.1% BSA binding buffer at pH 7.4 to a final assay concentration of 5 μg protein/well. […] At the end of the incubation, membranes were filtered onto unitfilter (96-well white microplate with bonded GF/C filter preincubated 1 h in 0.3% PEI+0.3% BSA, Packard BioScience, Meriden, Conn.) with a Filtermate 196 harvester (Packard BioScience) and washed 4 times with ice-cold 50 mM Tris-HCl, pH 7.4 buffer. Nonspecific binding was measured in the presence of 10 μM SB222200 for both radioligands. The radioactivity on the filter was counted (5 min) on a Packard Top-count microplate scintillation counter with quenching correction after addition of 45 μl of microscint 40 (Can berra Packard S. A., Zurich, Switzerland) and shaking for 1 h. Inhibition curves were fitted according to the Hill equation: y=100/(1+(x/IC50)^nH), where nH=slope factor using Excel-fit 4 software (Microsoft). IC50 values were derived from the inhibition curve and the affinity constant (Ki) values were calculated using the Cheng-Prussoff equation Ki═IC50/(1+[L]/KD) where [L] is the concentration of radioligand and KD is its dissociation constant at the receptor, derived from the saturation isotherm. All experiments were performed in duplicate and the mean±standard error (SEM) of the individual Ki values was calculated.

Row | Structure (SMILES) | Ki [µM]
1 | CC[C@H](NC(=O)C1(c2ccccc2)CCN(C(=O)c2ccc(-c3nc(C)no3)cc2)CC1)c1ccccc1 [Example 83, 1-[4-(3-Methyl-[1,2,4]oxa-diazol-5-yl)-benzoyl]-4-phenyl-piperidine 4-carboxylic acid ((S)-1-phenyl-propyl)-amide] | 0.0011
2 | CC[C@H](NC(=O)C1(c2ccccc2)CCN(C(=O)c2ccc(N3CCS(=O)(=O)CC3)cc2)CC1)c1ccccc1 [Example 84, 1-[4-(1,1-Dioxo-1λ6-thiomor-pholin-4-yl)-benzoyl]-4-phenyl-piperidine-4-carboxylic acid ((S)-1-phenyl-propyl)-amide] | 0.0028
3 | CC[C@H](NC(=O)C1(c2ccccc2)CCN(C(=O)c2ccc(-c3ccc(F)cc3)cc2)CC1)c1ccccc1 [Example 85, 1-(4′-Fluoro-biphenyl-4-carbonyl)-4-phenyl-piperidine-4-carboxylic acid ((S)-1-phenyl-propyl)-amide] | 0.0027
4 | Cc1noc(-c2ccc(C(=O)N3CCC(C(=O)N[C@@H](C)C4CCCCC4)(c4ccc(F)cc4)CC3)cc2)n1 [Example 90] | 0.0026
5 | C[C@H](NC(=O)C1(c2ccc(F)cc2)CCN(C(=O)c2ccc(N3CCS(=O)(=O)CC3)cc2)CC1)C1CCCCC1 [Example 91, 1-[4-(1,1-Dioxo-1λ6 thiomor-pholin-4-yl)-benzoyl]-4-(4-fluoro-phenyl)-piperidine-4-carboxylic acid ((S)-1-cyclohexyl-ethyl)-amide] | 0.0076
6 | C[C@H](NC(=O)C1(c2ccccc2)CCN(C(=O)c2ccc(N3CCS(=O)(=O)CC3)nc2)CC1)c1ccccc1 [Example 98, 1-[6-(1,1-Dioxo-1λ6-thiomor-pholin-4-yl)-pyridine-3-carbonyl]-4-phenyl-piperidine-4-carboxylic acid ((S)-1-phenyl-ethyl)-amide] | 0.0336
7 | C[C@H](NC(=O)C1(c2ccccc2)CCN(C(=O)c2ccc(N3CCS(=O)(=O)CC3)cc2)CC1)c1ccc(Cl)cc1 [Example 101, 1-[4-(1,1-Dioxo-1λ6-thiomor-pholin-4-yl)-benzoyl]-4-phenyl-pipendine-4-carboxylic acid [(S)-1-(4-chloro-phenyl)-ethyl]-amide] | 0.0174
8 | C[C@H](NC(=O)C1(c2ccccc2)CCN(C(=O)c2ccc(-c3ccc(F)cc3)cc2)CC1)c1ccc(Cl)cc1 [Example 102, 1-(4′-Fluoro-biphenyl-4-carbonyl)-4-phenyl-piperidine-4-carboxylic acid [(S)-1-(4-chloro-phenyl)-ethyl]-amide] | 0.0172
9 | Cc1noc(-c2ccc(C(=O)N3CCC(C(=O)N[C@@H](C)c4ccc(Cl)cc4)(c4ccccc4)CC3)cc2)n1 [Example 104, 1-[4-(3-Methyl-[1,2,4]oxa-diazol-5-yl)-benzoyl]-4-phenyl-piperidine-4-carboxylic acid [(S)-1-(4-chloro-phenyl)-ethyl]-amide] | 0.0112
10 | Cc1noc(-c2ccc(C(=O)N3CCC(C(=O)N(C)Cc4ccc(F)cc4)(c4ccccc4)CC3)cc2)n1 [Example 105, 1-[4-(3-Methyl-[1,2,4]oxa-diazol-5-yl)-benzoyl]-4-phenyl-piperidine-4-carboxylic acid (4-fluoro-benzyl)-methyl-amide] | 0.0052
11 | CN(Cc1ccc(F)cc1)C(=O)C1(c2ccccc2)CCN(C(=O)c2ccc(N3CCS(=O)(=O)CC3)cc2)CC1 [Example 106, 1-[4-(1,1-Dioxo-1λ6-thiomor-pholin-4-yl)-benzoyl]-4-phenyl-piperidine-4-carboxylic acid (4-fluoro-benzyl)-methyl-amide] | 0.0563
12 | Cc1noc(-c2ccc(C(=O)N3CCC(C(=O)N[C@@H](C)c4ccc(C(F)(F)F)cc4)(c4ccccc4)CC3)cc2)n1 [Example 114, 1-[4-(3-Methyl-[1,2,4]oxadiazol-5-yl)-benzoyl]-4-phenyl-piperidine-4-carboxylic acid [(S)-1-(4-trifluoromethyl-phenyl)-ethyl]-amide] | 0.0905
13 | Cc1noc(-c2ccc(C(=O)N3CCC(C(=O)NC(C)(C)c4ccccc4)(c4ccccc4)CC3)cc2)n1 [Example 116, 1-[4-(3-Methyl-[1,2,4]oxadiazol-5-yl)-benzoyl]-4-phenyl-piperidine-4-carboxylic acid (1-methyl-1-phenyl-ethyl)-amide] | 0.0226
14 | Cc1noc(-c2ccc(C(=O)N3CCC(C(=O)N[C@@H](C)c4ccc(F)cc4)(c4ccc(F)cn4)CC3)cc2)n1 [Example 126, 5-Fluoro-1′-[4-(3-methyl-[1,2,4]oxadiazol-5-yl)-benzoyl]-2′,3′,5′,6′-tetrahydro-1′H-[2,4′]bipyridinyl-4′-carboxylic acid [(S)-1-(4-fluoro-phenyl)-ethyl]-amide] | 0.0937

The next lines start with the values.

Row | Ki [µM] | Structure (SMILES)
15 | 0.0062 | Cc1noc(-c2ccc(C(=O)N3CCC(C(=O)N[C@@H](C)c4ccc(F)cc4)(c4ccc(F)cc4)CC3)cc2)n1 [Example 88, 4-(4-Fluoro-phenyl)-1-{4-(3-methyl-[1,2,4]oxa-diazol-5-yl)-benzoyl] piperidine-4-carboxylic acid [(S)-1-(4-fluoro-phenyl)-ethyl]-amide]
16 | 0.0183 | C[C@H](NC(=O)C1(c2ccc(F)cc2)CCN(C(=O)c2ccc(-c3ccc(F)cc3)cc2)CC1)c1ccc(F)cc1 [Example 89, 1-(4′-Fluoro-biphenyl-4-carbonyl)-4-(4-fluoro-piperidine-phenyl)-4-carboxylic acid [(S)-1-(4-fluoro-phenyl)-ethyl]-amide]
17 | 0.0051 | C[C@H](NC(=O)C1(c2ccc(F)cc2)CCN(C(=O)c2ccc(-c3ccc(F)cc3)cc2)CC1)C1CCCCC1 [Example 92, 1-(4′-Fluoro-biphenyl-4-carbonyl)-4-(4-fluoro-phenyl)-piperidine-4-carboxylic acid ((S)-1-cyclohexyl-ethyl)-amide]
18 | 0.082 | Cc1noc(-c2ccc(C(=O)N3CCC(C(=O)N[C@@H](C)c4ccc(F)cc4)(C4CCCCC4)CC3)cc2)n1 [Example 109, 4-Cyclohexyl-1-[4-(3-methyl-[1,2,4]oxa-diazol-5-yl)-benzoyl]-piperidine-4-carboxylic acid [(S)-1-(4-fluoro-phenyl)-ethyl]-amide]
19 | 0.0522 | C[C@H](NC(=O)C1(C2CCCC2)CCN(C(=O)c2ccc(-c3ccc(F)cc3)cc2)CC1)c1ccc(F)cc1 [Example 110, 4- Cyclopentyl-1-(4′-fluoro-biphenyl-4-carbonyl)-piperidine-4-carboxylic acid [(S)-1-(4-fluoro-phenyl)-ethyl]-amide]
20 | 0.0398 | Cc1noc(-c2ccc(C(=O)N3CCC(C(=O)N[C@@H](C)c4ccc(F)cc4)(C4CCCC4)CC3)cc2)n1 [Example 111, 4- Cyclopentyl-1-[4-(3-methyl-[1,2,4]oxa-diazol-5-yl)-benzoyl]-piperidine-4-carboxylic acid [(S)-1-(4-fluoro-phenyl)-ethyl]-amide]
21 | 0.0828 | Cc1nc(-c2ccc(C(=O)N3CCC(C(=O)N[C@@H](C)c4ccc(F)cc4)(C4CCCC4)CC3)cc2)no1 [Example 112, 4- Cyclopentyl-1-[4-(5-methyl-[1,2,4]oxa-diazol-3-yl)-benzoyl]-piperidine-4-carboxylic acid [(S)-1-(4-fluoro-phenyl)-ethyl]-amide]
22 | 0.0356 | C=C(C)CC1(C(=O)N[C@@H](C)c2ccc(F)cc2)CCN(C(=O)c2ccc(-c3ccc(F)cc3)cc2)CC1 [Example 113, 1-(4′-Fluoro-biphenyl-4-carbonyl)-4-(2-methyl-allyl)-piperidine-4-carboxylic acid [(S)-1-(4-fluoro-phenyl)-ethyl]-amide]
23 | 0.0257 | CC(C)CC1(C(=O)N[C@@H](C)c2ccc(F)cc2)CCN(C(=O)c2ccc(-c3ccc(F)cc3)cc2)CC1 [Example 122, 1-(4′-Fluoro-biphenyl-4-carbonyl)-4-isobutyl-piperidine-4-carboxylic acid [(S)-1-(4-fluoro-phenyl)-ethyl]-amide]
24 | 0.012 | C[C@H](NC(=O)C1(c2ccc(F)cc2)CCN(C(=O)c2ccc(-c3ccc(F)cc3)cc2)CC1)c1cccc(F)c1 [Example 129, 1-(4′-Fluoro-biphenyl-4-carbonyl)-4-(4-fluoro-phenyl)-piperidine-4-carboxylic acid [(S)-1-(3-fluoro-phenyl)-ethyl]-amide]
